Measured values reported in ChEMBL document CHEMBL3044848, “Antiangiogenic and growth inhibitory effects of synthetic novel 1, 5-diphenyl-1,4 pentadiene-3-one-3-yl-ethanone pyridine curcumin analogues on Ehrlich ascites tumor in vivo” (Med Chem Res, 2008).
Calls of active or inactive are those of the source. The rule behind the calls is not given here.

Legend:
Chorioallantoic membrane = experiment: Antiangiogenesis activity against fertilized Gallus gallus (chicken) egg chorioallantoic membrane assessed as inhibition of neovascularization at 0.1 mM administered to 11 day old embryo measured on day 13 by microscopic analysis; assay type: functional, tissue-based
Mus musculus [1] = experiment: Toxicity against Mus musculus Swiss albino (mouse) assessed as weight loss at 100 mg/kg, ip; assay type: organism-based; set-up: dose 100 mg/kg, route intraperitoneal; conditions: in vivo
EAT [2] = experiment: Antitumor activity against Mus musculus (mouse) EAT cells xenografted in Mus musculus Swiss albino (mouse) assessed as decrease in cell number at 100 mg/kg, ip administered on days 7,9 and 11 post tumor-injection measured on day 12 relative to control; assay type: functional, organism-based; set-up: dose 100 mg/kg
EAT [3] = experiment: Antitumor activity against Mus musculus (mouse) EAT cells xenografted in Mus musculus Swiss albino (mouse) assessed as decrease in ascites volume at 100 mg/kg, ip administered on days 7,9 and 11 post tumor-injection measured on day 12 relative to control; assay type: functional, organism-based; set-up: dose 100 mg/kg
EAT [4] = experiment: Antitumor activity against EAT cells xenografted in Mus musculus (mouse) assessed as condensed nuclei at 100 mg/kg, ip administered on days 7,9 and 11 post tumor-injection measured on day 12 by acridine orange:ethidium bromide staining; assay type: functional, organism-based; set-up: dose 100 mg/kg
EAT [5] = experiment: Antitumor activity against EAT cells xenografted in Mus musculus Swiss albino (mouse) assessed as apoptotic bodies at 100 mg/kg, ip administered on days 7,9 and 11 post tumor-injection measured on day 12 by Geimsa staining; assay type: functional, organism-based; set-up: dose 100 mg/kg
[6] = Antitumor activity against Mus musculus (mouse) EAT cells xenografted in Mus musculus Swiss albino (mouse)assessed as increase in life span at 100 mg/kg, ip administered on days 7,9 and 11 post tumor-injection measured on day 12 relative to control; assay type: functional; conditions: route intraperitoneal
EAT [7] = experiment: Antiangiogeneic activity against Mus musculus (mouse) EAT cells xenografted in Mus musculus Swiss albino (mouse) assessed as decrease in peritoneal microvessel density per high power field at 100 mg/kg, ip administered on days 7,9 and 11 measured on day 12 by H and E staining-based microscopic analysis; assay type: functional, organism-based; set-up: dose 100 mg/kg
[8] = Antitumor activity against Mus musculus (mouse) EAT cells xenografted in Mus musculus Swiss albino (mouse) assessed as change in body weight at 100 mg/kg, ip administered on days 7,9 and 11 post tumor-injection measured on day 12 (reference value: 10.44 +/- 0.147); assay type: functional; conditions: route intraperitoneal
Mus musculus [9] = experiment: Toxicity against Mus musculus Swiss albino (mouse) assessed as mortality at 100 mg/kg, ip; assay type: organism-based; set-up: dose 100 mg/kg, route intraperitoneal; conditions: in vivo

Row | SMILES | inhibition (Chorioallantoic membrane) | Activity (Mus musculus [1]) | Activity (EAT [2]) | Activity (EAT [3]) | Activity (EAT [4]) | Activity (EAT [5]) | Activity [6] | Activity (EAT [7]) | Activity [8] | Activity (Mus musculus [9])
1 | O=C(/C=C/c1ccc(OCC(=O)c2cccnc2)cc1)/C=C/c1ccc(OCC(=O)c2cccnc2)cc1 | Active | Non-toxic | Active | Active | Active | Active | 66.6% | Active | -4.96 g | Non-toxic
2 | COc1cc(/C=C/C(=O)/C=C/c2ccc(OCC(=O)c3cccnc3)c(OC)c2)ccc1OCC(=O)c1cccnc1 | Active | Non-toxic | Active | Active | Active | Active | 88.8% | Active | -5.07 g | Non-toxic
